Measured values reported in US11197885B2, “Collagen enhancing agent made from low acyl gellan gum, methods of making and methods of using the same” (The University of Toledo, priority 2015, dated 2021).

Columns and labels:
[1] = system: differentiated dopaminergic PC12 cells exposed to 30 μM 6-OHDA; experiment: LIVE/DEAD viability of differentiated PC12 cells exposed to 6-OHDA; assay type: cell-based; settings: 1 μM for 6 h, then 30 μM 6-OHDA for 24 h
Description: Differentiated dopaminergic PC12 cells and primary mouse embryonic cortical neurons (E17, DIV14) were treated with mock (H2O) or 1 μM of dextran, alginate, HA-GAGR, or midi-GAGR for 6 h and insulated by oxidative stressors (30 μM 6-OHDA [PC12] and 10 μM amyloid β peptide [cortical neurons]) for 24 h.

[2] = system: phosphorylated CREB in differentiated PC12 cells; experiment: nuclear p-CREB immunostaining in differentiated PC12 cells; assay type: cell-based; settings: 1 μM, 24 h
Description: (§1) Differentiated PC12 cells and mouse embryonic cortical neurons (E17, DIV14) were treated with mock, dextran, alginate, HA-GAGR, or midi-GAGR (1 μM) for 24 h and fixed in 3.7% paraformaldehyde. The fixed cells and neurons were immunostained with antibodies against α-tubulin and phosopho-CREB (p-CREB) along with DAPI (nucleus).

[3] = system: phosphorylated CREB in mouse embryonic cortical neurons; experiment: nuclear p-CREB immunostaining in embryonic cortical neurons (Example 2); assay type: cell-based; settings: 1 μM, 24 h
Description: as §1

[4] = system: primary mouse cortical neurons (E17, DIV4); experiment: neurite outgrowth in primary mouse cortical neurons; assay type: cell-based; settings: 2 days; midi-GAGR, dextran, alginate 1 μM; LA-GAGR 0.1 μM; HA-GAGR 0.01 μM
Description: To analyze the effect of polysaccharides on neurite outgrowth, primary mouse cortical neurons were treated with vehicle (H2O) or 1 μM of dextran, alginate, or midi-GAGR, 0.01 μM of HA-GAGR, or 0.1 μM of LA-GAGR for 2 days prior to immunocytochemistry using anti-α-tubulin antibody and secondary Alexa488nm antibody. An etched grid coverslip containing 200 numbered boxes was used to select neurons objectively for image acquisition and analysis. A total of 24 boxes were randomly selected per treatment group. All the neurons having total neurite length longer than 4 times of the diameter of neuron cell body were chosen for image analysis. The total length of the neurites of each neuron was measured using Metamorph and used to calculate average total neurite length. To examine the effect of polysaccharides on the phosphorylation (activation) of nuclear CREB, neurons were stained with anti-pCREB antibody (Abcam & Santa Cruz biotechnologies, 2nd antibody with Alexa568nm), anti-α-tubulin antibody (Sigma, 2nd antibody with Alexa488nm), and DAPI (Sigma) after two-day incubation with vehicle (H2O) or 1 μM of dextran, alginate, or midi-GAGR, 0.01 μM of HA-GAGR, or 0.1 μM of LA-GAGR. […] The images of neurons on coverslips were taken by confocal microscopy at the same gain (850), offset (−0.01), and exposure time (2 sec). The intensity of the staining of nuclear pCREB was measured using Metamorph and used to calculate average intensity. In addition, the phosphorylation of CREB in the cytosols of mouse cortical neurons treated with polysaccharides were detected by immunoblotting. Primary mouse neurons were dissected from 16 mouse embryos (E17) and plated in the wells of 6-well plates (1×10^6 cells/well), differentiated for 6 days, and treated with polysaccharides for 48 h. […] The protein bands on blots recognized by anti-pCREB (Santa Cruz Biotechnologies) and anti-CREB antibodies were detected on Amersham Hyperfilm™ ECL films (GE Healthcare Life Science) using SuperSignal® West Pico Chemiluminescent Substrate (Thermo Scientific).

FGFR1 = FGFR1 (Mus musculus, UniProt P16092); experiment: affinity chromatography with midi-GAGR-conjugated sepharose beads, FGFR1 immunoblotting; assay type: binding; parameters: Whole mouse brains were homogenized for cytosol extraction in PMEE buffer containing 1% Igepal CA-630; from tissue; host or cells: mouse brain (cerebral cortex / whole brain) detergent extract; settings: 0.5% Igepal CA-630 PMEE buffer
Description: To examine whether midi-GAGR interacts with synaptosomal FGFR1 or not, an affinity chromatography using midi-GAGR-conjugated sepharose beads was performed. Either midi-GAGR or dextran were conjugated to epoxy-activated sepharose 6B that is a pre-activated medium that can be conjugated to the hydroxyl groups of carbohydrates. Briefly, 200 μL of 7.4 mM midi-GAGR or 5 kD dextran in H2O was mixed with 200 μL of epoxy-activated sepharose beads in a microtube and incubated on a rotator (16 h, 37° C.). The mixture was spun down at 1,000×g (10 min) to separate bead-bound polysaccharides from unbound. Unoccupied active sites on beads were blocked by incubation (4 h, 45° C.) in 1 M ethanolamine (pH 8). Then, beads were washed with three cycles of alternating pH solutions—0.1 M acetate buffer (pH 4) and 0.1 M Tris-HCl buffer (pH 8), both containing 0.5 M NaCl. The conjugation of polysaccharides to beads was confirmed by phenol-sulfuric acid colorimetry. Cerebral cortices were dissected from four female mice (BALB/C, 8 wks old) and homogenized with a hand grinder in 1 mL of PMEE homogenization buffer plus 1% Igepal CA-630 and protease inhibitors (PIs). The homogenate was centrifuged at 1,000×g (10 min) to remove nuclei and undisrupted cells. The supernatant was subjected to 5-6 strokes through 27G needle. Post-nuclear supernatant was centrifuged at 1,000×g (15 min). […]

Chain of FGFR1 (P16092 22-822): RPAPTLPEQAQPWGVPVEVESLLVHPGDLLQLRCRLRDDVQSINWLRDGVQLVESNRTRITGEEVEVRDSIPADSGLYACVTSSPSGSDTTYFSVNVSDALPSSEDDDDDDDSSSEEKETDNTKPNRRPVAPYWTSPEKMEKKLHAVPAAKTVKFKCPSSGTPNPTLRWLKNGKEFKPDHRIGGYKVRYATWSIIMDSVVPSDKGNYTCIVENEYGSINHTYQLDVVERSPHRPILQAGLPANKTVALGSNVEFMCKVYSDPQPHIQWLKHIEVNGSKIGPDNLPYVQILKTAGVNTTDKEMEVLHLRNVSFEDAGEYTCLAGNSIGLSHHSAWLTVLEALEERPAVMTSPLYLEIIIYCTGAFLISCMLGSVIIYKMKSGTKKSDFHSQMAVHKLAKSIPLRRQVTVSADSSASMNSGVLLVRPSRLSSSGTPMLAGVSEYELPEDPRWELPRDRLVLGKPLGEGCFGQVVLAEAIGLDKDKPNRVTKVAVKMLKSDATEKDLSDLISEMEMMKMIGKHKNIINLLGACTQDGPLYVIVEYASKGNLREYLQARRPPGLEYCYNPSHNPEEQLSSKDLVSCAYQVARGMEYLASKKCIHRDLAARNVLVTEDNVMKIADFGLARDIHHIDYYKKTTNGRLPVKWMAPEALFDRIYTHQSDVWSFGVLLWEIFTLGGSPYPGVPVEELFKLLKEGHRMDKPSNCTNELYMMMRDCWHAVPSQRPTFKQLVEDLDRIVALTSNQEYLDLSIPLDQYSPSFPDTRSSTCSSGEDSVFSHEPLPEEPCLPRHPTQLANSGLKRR

dextran
6-OHDA-induced cell death [1]: did not | increase in levels of nuclear p-CREB [2]: not significantly increased | increase in levels of nuclear p-CREB [3]: not significantly increased | fold change in average total neurite length vs vehicle [4]: did not enhance neuritogenesis | FGFR1 pulled down from brain extract by polysaccharide-conjugated beads (FGFR1): not
